Experimental data published in US20050059641A1, “Compositions and methods for treating and preventing cancer using analogs of vitamin D” (Aphios Corporation, priority 2003, published 2005).
“Also recorded” adds a separate entry of the source.

Molecular target: vitamin D receptor, VDR (Homo sapiens, UniProt P11473)
Test: cross-linking (affinity labeling) of the hormone-binding pocket of VDR
Conditions: FIG. 13
Source text: The present invention is directed, in part, to novel analogs of 1,25(OH)2D3, for example, 1,25(OH)2D3-3-BE and 25(OH)2D3-3-BE. The inventors have developed a novel affinity alkylating analog of 1,25(OH)2D3 which cross links 1,25(OH)2D3 to the hormone-binding pocket of VDR via a nucleophilic displacement reaction between a Cys residue in the hormone-binding pocket (Cys288) and a reactive bromoacetate group at the 3-position of 1,25(OH)2D3 (Ray R, Ray S., and Holick M. F. 1″,25-dihydroxyvitamin D3-3-deoxy-3$-bromoacetate, an affinity labeling analog of 1″,25-dihydroxyvitamin D3. (1994) Bioorg. Chem. 22 276-283; Ray R, Swamy N, MacDonald P N, Ray S, Haussler M R, and Holick M F. (1996) Affinity labeling of 1″,25-dihydroxyvitamin D3 receptor. J. Biol Chem 271 2012-2017; Swamy N, Kounine M, and Ray R. (1997) Identification of the subdomain in the nuclear receptor for the hormonal form of vitamin D3, 1″,25-dihydroxyvitamin D3, vitamin D receptor, that is covalently modified by an affinity labeling reagent. Arch Biochem Biophys 348 91-95; Chen M L, Ray S, Swamy N, Holick M F, and Ray R. Mechanistic studies to evaluate the enhanced anti-proliferation of human keratinocytes by 1α,25-dihydroxyvitamin D3-3-bromoacetate, a covalent modifier of vitamin D receptor, compared to 1α,25-dihydroxyvitamin D3. (1999) Arch. Biochem. Biophys. […]

Chain of vitamin D receptor, VDR (P11473 whole entry): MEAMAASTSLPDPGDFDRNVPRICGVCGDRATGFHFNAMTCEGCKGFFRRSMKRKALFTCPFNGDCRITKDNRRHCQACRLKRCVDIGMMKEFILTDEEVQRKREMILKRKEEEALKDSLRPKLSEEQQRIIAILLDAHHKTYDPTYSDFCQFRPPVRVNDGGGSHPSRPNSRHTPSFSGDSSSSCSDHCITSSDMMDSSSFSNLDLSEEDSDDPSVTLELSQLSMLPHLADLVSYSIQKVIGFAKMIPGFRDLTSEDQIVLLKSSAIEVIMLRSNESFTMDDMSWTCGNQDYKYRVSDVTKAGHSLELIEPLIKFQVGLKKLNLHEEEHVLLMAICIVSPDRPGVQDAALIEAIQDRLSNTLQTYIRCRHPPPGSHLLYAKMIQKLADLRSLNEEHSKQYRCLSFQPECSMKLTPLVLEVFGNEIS

C=C1CCC(OC(=O)CBr)CC1=CC=C1CCCC2(C)C1CCC2C(C)CCCC(C)(C)O (stereo not shown) [25-OH-D3-3-BE, 25-hydroxyvitamin D3-3-bromoacetate]
cross-linking (labeling) of the hormone-binding pocket of VDR: specifically cross-links to the hormone binding pocket of VDR; also recorded: specifically labels the hormone-binding pocket of VDR
